Measurements published in patent US11820737B2, “Generation of peroxyhydroxycarboxylic acid and the use thereof” (ECOLAB USA INC., priority 2020, dated 2023).
Values joined by “and” are separate entries in the source; they are usually repeats but may differ in a detail not shown here. Equal values may be shown once.

How the values were obtained:
[1] = system: Campylobacter jejuni ATCC 33291; test: Food contact suspension test (FCS, AOAC 960.09); format: cell-based; details: for concentration required for efficacy: 75° F., FIG. 6; for Avg. Log10 Growth / Log10 Reduction: 30 second
Procedure: Antimicrobial Efficacy of Peroxylactic Acid. The antimicrobial efficacy of generated peroxylactic acid was evaluated following the US EPA food contact suspension test protocol (AOAC 960.09) against Staphylococcus aureus and Escherichia coli according to the conditions set forth in Table 7.
Additional efficacy testing against Campylobacter jejuni ATCC 33291 as described in Table 10 was completed to compare efficacy at 75° F. of lactic acid, peroxylactic acid (PLA) and peroxyacetic acid (PAA). […] In particular, in comparison to lactic acid substantially lower concentrations are required (25 ppm PLA instead of approximately 5000 ppm lactic acid).
Beneficially, the concentration of peroxylactic acid required for micro efficacy are substantially lower than lactic acid and the lactic acid which is formed upon degradation of the peroxylactic acid is further beneficial for micro efficacy.

[2] = system: Listeria monocytogenes ATCC 49594; test: Food contact suspension test (FCS, AOAC 960.09); format: cell-based; details: 30 second
Procedure: (§1) Additional antimicrobial efficacy of generated peroxylactic acid was evaluated following the US EPA food contact suspension test protocol (AOAC 960.09) against Salmonella, E. coli, Campylobacter and Listeria according to the conditions set forth in Table 16.

[3] = system: Salmonella, E. coli, Campylobacter and Listeria; test: Food contact suspension test (AOAC 960.09), FIG. 7; format: cell-based; details: 30 seconds
Procedure: as §1
In addition at 100 ppm PLA provides efficacy of greater than 7 log reduction against Listeria, whereas peroxyacetic acid is known to require at least about 180 ppm for greater than 7 log reduction against Listeria.

[4] = Kinetic instability of peroxylactic acid generated through equilibrium reaction of lactic acid and hydrogen peroxide (FIG. 4); format: physicochemical; details: generated through equilibrium between lactic acid and H2O2, FIG. 4
Procedure: Comparison of Lactide Ester to Lactic Acid Precursor to Generate Peroxylactic Acid. The equilibrium reaction using lactic acid reagent for generating perlactic acid was performed to show the distinct advantages of the methods of generation according to the invention. […] It is also known that the reaction results in additional byproducts—which may not be suitable for various applications of use.
This makes it commercially not feasible to deliver the compositions for end application at customer locations.

SMILES | concentration required for efficacy [1] | Avg. Log10 Growth ([2]; 50 ppm PLA) [Log10] | CFU/mL ([2]; 50 ppm PLA) | Log10 Growth ([2]; 50 ppm PLA) | Log10 Reduction ([2]; 50 ppm PLA) [Log10] | Avg. Log10 Growth ([2]; 100 ppm PLA) [Log10] | Log10 Reduction ([2]; 100 ppm PLA) [Log10] | Avg. Log10 Growth ([2]; 150 ppm PLA) [Log10] | Log10 Reduction ([2]; 150 ppm PLA) [Log10] | Avg. Log10 Growth ([1]; 25 ppm PLA) [Log10] | Log10 Reduction ([1]; 25 ppm PLA) [Log10] | Avg. Log10 Growth ([1]; 50 ppm PLA) [Log10] | Log10 Reduction ([1]; 50 ppm PLA) [Log10] | Avg. Log10 Growth ([1]; 75ppm PLA) [Log10] | Log10 Reduction ([1]; 75ppm PLA) [Log10] | low concentration dose providing efficacy against various microbes [3] [ppm] | stability of generated perlactic acid [4]
CC(O)C(=O)O (stereo not drawn) [Lactic Acid, reference compound] | approximately 5000 ppm |  |  |  |  |  |  |  |  |  |  |  |  |  |  |  | 
CC(O)C(=O)OO (stereo not drawn) [PLA, peroxylactic acid] | 25 ppm | 5.84 | 6.90E+05 CFU/mL and 6.80E+05 CFU/mL | 5.84 Log10 and 5.83 Log10 | 2.23 | <1.00 | >7.06 | <1.00 | >7.06 | <1.00 | >7.06 | <1.00 | >7.06 | <1.00 | >7.06 | 25 | very unstable
